Experimental data taken from patent publication US9370503B1, “Compounds for treating ocular diseases” (priority 2015, dated 2016).

Key:
[1] = test system: ARPE-19 cells; test: NaN3-induced injury in ARPE-19 cells (MTT); type: cell-based, human; settings: 0.03 μg/ml to 10 μg/ml compound, 72 hours
Protocol: (§1) ARPE-19 cells were grown in DMEM/F12 medium supplemented with 10% FBS, 100 units/ml penicillin G, and 100 μg/ml streptomycin sulfate. HUVECs were grown in vascular cell basal medium supplemented with endothelial cell growth kit. Cells were incubated in a humidified incubator at 37° C. under 5% CO2 and 95% air.
(§2) MTT assay was used to measure the viability of ARPE-19 cells and HUVECs. 2×10^5 ARPE-19 cells or 5×10^4 HUVECs were seeded in 96-well plates (100 μl/well) and allowed to grow overnight. Negative control was prepared by adding 100 μl medium without cells. The cells were then treated with fresh medium with a compound of Formula (II) (“(II)”) (0.03, 0.1, 0.3, 1, 3 and 10 μg/ml) and/or oxidants (NaIO3, H2O2, t-BHP and NaN3) for 12, 24, or 72 hours (200 μl/well). The vehicle control group was treated with vehicle. 20 μl MTT (5 mg/ml) was added to wells, and incubated for another 4 h. After incubation, the medium was discarded and 100 μl DMSO was added to solubilize formazan produced from MTT by the viable cells. Absorbance was measured at 570 nm using a microplate reader (Bio-Rad Laboratories, Inc., CA). Cells viability was calculated according to the following formula: Viability of cells (%)=(absorbance in tested sample−absorbance in negative control)/(absorbance in vehicle control−absorbance in negative control)×100%.

[2] = test system: ARPE-19 cells; test: MTT assay, proliferation/cytotoxicity in ARPE-19 cells; type: cell-based, human; settings: 72 hours
Protocol: as §1, §2

[3] = test system: Ocular Hypertensive Rabbit; test: Ocular blood flow in ocular hypertensive rabbit (colored microspheres); type: in vivo; settings: 1% topical instillation, 30 minutes after drug instillation
Protocol: 0.5% alcaine was purchased commercially. A 20% sterilized hypertonic saline solution was prepared in the laboratory. Colored microspheres were purchased from E-Z Trac (Los Angeles, Calif.). The colored microspheres were diluted with saline containing 0.01% (v/v) of Tween 80 to prevent the microspheres from sticking together. Two million microspheres in 0.4 ml were injected at each time point.
Female New Zealand white rabbits weighing 2.-3.0 kg, were purchased commercially. Animal care and treatment were followed by the institutional guidelines.
Rabbits were anesthetized with 35 mg/kg ketamine and 5 mg/kg xylazine by intramuscular injection. Half of the initial dose was given every one hour thereafter. The left ventricle was cannulated through the right carotid artery for injection of colored microspheres and the femoral artery was cannulated for collection of blood samples. The left eye was treated with one drop of proparacaine hydrochloride ophthalmic solution (Bausch & Lomb, Inc., Tampa, Fla., USA). The needle was inserted directly into the anterior chamber of the left eye, which was connected to the 40 mmHg saline manometer. The ocular hypertensive model reduced the ocular blood flow to approximately one third of the normal valued. 50 μl of 10 g/l flavone or vehicle (30% HP-β-CD solution) was instilled topically to the left eye 30 minutes after the ocular hypertensive model was built. The ocular blood flow was measured by colored microspheres at 0, 30, 60 and 120 minutes after treatment with the compounds or vehicle. At each time point, 2 million microspheres were injected as a reference, and blood samples were taken from the femoral artery for exactly one minute following injection of the microspheres. The blood sample was collected in a heparinized tube and the volume was recorded. The rabbits were euthanized with an injection of 100 mg/kg pentobarbital sodium after the last blood sampling. The left eyes were enucleated and dissected into the iris, ciliary body, retina and choroid. All the tissues were weighed.
The details of sample processing and microsphere counting were provided by E-Z Trac (Los Angeles, Calif., USA). In brief, the blood hemolysis reagent was added to the microfuge tubes with the blood sample, then vortexed and centrifuged for 30 minutes at 6000 rpm. The supernatant was removed, and then tissue/blood digest reagents I and II were added. The tubes were capped, vortexed, and centrifuged for 30 minutes. […] The number of microspheres was counted by the hemocytometer under the microscope. […] The protocol thereafter was the same as that used to process the blood samples, and the microspheres were counted.
The blood flow of each tissue at a certain time point was calculated according to the following formula: Qm=(Cm×Qr)/Cr. […]

[4] = test system: HUVECs; test: H2O2-induced injury in HUVECs (MTT); type: cell-based, human; settings: 24 hours; for enhancement of H2O2-induced injury in HUVECs: 10 μg/ml compound
Protocol: as §1, §2

[5] = test system: ARPE-19 cells; test: t-BHP-induced injury in ARPE-19 cells (MTT); type: cell-based, human; settings: 12 hours
Protocol: as §1, §2

[6] = test system: HUVECs; test: t-BHP-induced injury in HUVECs (MTT); type: cell-based, human; settings: 12 hours
Protocol: as §1, §2

[7] = test system: HUVECs; test: MTT assay, proliferation/cytotoxicity in HUVECs; type: cell-based, human; settings: 72 hours
Protocol: as §1, §2

[8] = test system: HUVECs; test: NaIO3-induced injury in HUVECs (MTT); type: cell-based, human; settings: 3 and 10 μg/ml compound, 72 hours
Protocol: as §1, §2

[9] = test system: HUVECs; test: NaN3-induced injury in HUVECs (MTT); type: cell-based, human; settings: 72 hours
Protocol: as §1, §2

## CC(C)=CCC/C(C)=C/Cc1c([C@@H]2CC(=O)c3c(cc(O)c(CC=C(C)C)c3O)O2)ccc(O)c1O [Formula (II)]
[1]
  effect on NaN3-induced injury in ARPE-19 cells: significantly reversed
[2]; 0.03 μg/ml to 3 μg/ml
  effect on proliferation of ARPE-19 cells: did not affect
[2]; Homo sapiens, ARPE-19, 10 μg/ml
  inhibition at 10 µg/mL: 34%
[3]
  blood flow in choroid: significantly increased
  blood flow in iris: significantly increased
[4]; 200 μM H2O2
  enhancement of H2O2-induced injury in HUVECs: 63%
[4]; 400 μM H2O2
  enhancement of H2O2-induced injury in HUVECs: 42%
[4]; 0.3 and 1 μg/ml compound
  effect on H2O2-induced injury in HUVECs: reversed
[5]
  effect on t-BHP-induced injury in ARPE-19 cells: significantly reversed
[6]; 50 μM t-BHP, 3 μg/ml compound
  enhancement of t-BHP-induced injury in HUVECs: 27%
[6]; 50 μM t-BHP, 10 μg/ml compound
  enhancement of t-BHP-induced injury in HUVECs: 71%
[6]; 100 μM t-BHP, 3 μg/ml compound
  enhancement of t-BHP-induced injury in HUVECs: 21%
[6]; 100 μM t-BHP, 10 μg/ml compound
  enhancement of t-BHP-induced injury in HUVECs: 80%
[6]; 200 μM t-BHP, 10 μg/ml compound
  enhancement of t-BHP-induced injury in HUVECs: 76%
[7]; 0.03 μg/ml to 3 μg/ml
  effect on proliferation of HUVECs: did not affect
[7]; Homo sapiens, HUVEC, 10 μg/ml
  inhibition at 10 µg/mL: 92%
[8]
  effect on NaIO3-induced injury in HUVECs: enhanced
[9]; 0.3 mM NaN3, 3 μg/ml compound
  enhancement of NaN3-induced injury in HUVECs: 75%
[9]; 0.3 mM NaN3, 10 μg/ml compound
  enhancement of NaN3-induced injury in HUVECs: 95%
[9]; 1 mM NaN3, 10 μg/ml compound
  enhancement of NaN3-induced injury in HUVECs: 75%
[9]; 3 mM NaN3, 3 μg/ml compound
  enhancement of NaN3-induced injury in HUVECs: 44%
[9]; 3 mM NaN3, 10 μg/ml compound
  enhancement of NaN3-induced injury in HUVECs: 71%
